# Assay results as given in US8952024B2, “Herbicidal pyrimidone derivatives” (E I du Pont de Nemours and Company, priority 2009, dated 2015).
# What was measured:
# Type in all cases: in vivo
# [1] = tested on: bermudagrass (Cynodon dactylon); experiment: Test B pre-/postemergence plant response
# Outline: (§1)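 Pre-em in loam/sand; post-em at 1–4 leaf (2–18 cm) in peat mix. Solvent + surfactant formulation. Greenhouse 13–15 d; visual % control vs untreated, 0–100.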
# [2] = tested on: galium (catchweed bedstraw, Galium aparine); experiment: Test B pre-/postemergence plant response; conditions: Preemergence
# Outline: as §1
# [3] = tested on: morningglory (Ipomoea coccinea); experiment: Test B pre-/postemergence plant response
# Outline: as §1
# [4] = tested on: nightshade (eastern black nightshade, Solanum ptycanthum); experiment: Test B pre-/postemergence plant response; conditions: Preemergence
# Outline: as §1
# [5] = tested on: sunflower (common oilseed sunflower, Helianthus annuus); experiment: Test B pre-/postemergence plant response; conditions: Preemergence
# Outline: as §1
# [6] = tested on: canarygrass (Phalaris minor); experiment: Test B postemergence plant response
# Outline: (§2)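 Plants at the 1- to 4-leaf stage (2 to 18 cm tall), grown in pots of peat moss/vermiculite medium with wetting agent and starter nutrients, received postemergence applications of test chemicals. After 13 to 15 days in a greenhouse, injury was rated visually against untreated controls on a 0 (no effect) to 100 (complete control) scale.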
# [7] = tested on: chickweed (Stellaria media); experiment: Test B postemergence plant response
# Outline: as §2
# [8] = tested on: windgrass (Apera spica-venti); experiment: Test B postemergence plant response
# Outline: as §2
# [9] = tested on: winter barley (Hordeum vulgare); experiment: Test B postemergence plant response
# Outline: as §2
# [10] = tested on: barnyardgrass (Echinochloa crus-galli); experiment: Test B flooded paddy test; conditions: for Plant response rating, Flood, Barnyardgrass: 250 g ai/ha, flooded paddy test, visual rating on 0 to 100 scale (0 no effect, 100 complete control) after 13 to 15 days; for Plant response rating, Barnyardgrass: Flood (flooded paddy test), 13 to 15 days
# Outline: (§3)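 Visual scores run from 0 (no effect) to 100 (complete control), assigned by comparison with controls 13 to 15 days after treatment. Test compounds went straight into water standing 3 cm above the soil, around plants at the 2-leaf stage kept in a greenhouse.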
# [11] = tested on: ducksalad (Heteranthera limosa); experiment: Test B flooded paddy test; conditions: for Plant response rating, Flood, Ducksalad: 250 g ai/ha, flooded paddy test, visual rating on 0 to 100 scale (0 no effect, 100 complete control) after 13 to 15 days; for Plant response rating, Ducksalad: Flood (flooded paddy test), 13 to 15 days
# Outline: as §3
# rice (Oryza sativa) = experiment: Test B flooded paddy test; conditions: for Plant response rating, Flood, Rice: 250 g ai/ha, flooded paddy test, visual rating on 0 to 100 scale (0 no effect, 100 complete control) after 13 to 15 days; for Plant response rating, Rice: Flood (flooded paddy test), 13 to 15 days
# Outline: as §3
# [12] = tested on: umbrella sedge (Cyperus difformis); experiment: Test B flooded paddy test; conditions: for Plant response rating, Flood, Sedge, Umbrella: 250 g ai/ha, flooded paddy test, visual rating on 0 to 100 scale (0 no effect, 100 complete control) after 13 to 15 days; for Plant response rating, Sedge, Umbrella: Flood (flooded paddy test), 13 to 15 days
# Outline: as §3
# [13] = tested on: goosegrass (Eleusine indica); experiment: Test B pre-/postemergence plant response; conditions: Preemergence, 62 g ai/ha; scale 0 to 100, 0 no effect, 100 complete control
# [14] = tested on: Russian thistle (Salsola kali); experiment: Test B pre-/postemergence plant response; conditions: Preemergence
# Outline: as §1
# [15] = 250 g ai/ha, Preemergence, 0 to 100 scale
# [16] = Postemergence, 31 g ai/ha, scale 0 to 100 (0 no effect, 100 complete control)
# [17] = Postemergence, 62 g ai/ha, scale 0 (no effect) to 100 (complete control), 13 to 15 days
# [18] = Postemergence, 125 g ai/ha, visual rating after 13 to 15 days, scale 0 (no effect) to 100 (complete control)
# [19] = Postemergence, 250 g ai/ha, scale 0 to 100
# [20] = Preemergence, 31 g ai/ha, scale 0 to 100 (0 no effect, 100 complete control)
# [21] = Preemergence, 62 g ai/ha, scale 0 to 100, 0 no effect, 100 complete control
# [22] = Preemergence, 125 g ai/ha, 0 to 100 scale
# [23] = 31 g ai/ha, scale 0 to 100 (0 no effect, 100 complete control)
# [24] = 62 g ai/ha, scale 0 to 100, 0 no effect, 100 complete control
# [25] = 62 g ai/ha, scale 0 to 100, 0 is no effect, 100 is complete control
# [26] = 125 g ai/ha, scale 0 to 100, 0 no effect, 100 complete control
# [27] = 31 g ai/ha, postemergence, scale 0 to 100, 0 is no effect, 100 is complete control
# [28] = 62 g ai/ha, postemergence, 0 is no effect, 100 is complete control, 13 to 15 days
# [29] = Postemergence, 250 g ai/ha, scale 0 to 100 (0 no effect, 100 complete control)
# [30] = Preemergence, 125 g ai/ha, scale 0 to 100, 0 no effect, 100 complete control
# [31] = 62 g ai/ha, scale of 0 to 100 where 0 is no effect and 100 is complete control
# [32] = 125 g ai/ha, scale 0 to 100, 0 is no effect, 100 is complete control
# [33] = Flood, 31 g ai/ha, scale 0 to 100 (0 no effect, 100 complete control)
structure (smiles),measurement,setting,value
Cc1ccc(C)c(-n2c(-c3ccccc3)ncc(C(=O)C3=C(O)CCCC3=O)c2=O)c1 [Compound 29],"Plant response rating, Bermudagrass",[1]; [15],100
same,"Plant response rating, Bermudagrass",[1]; [16],85
same,"Plant response rating, Bermudagrass",[1]; [17],90
same,"Plant response rating, Bermudagrass",[1]; [18],90
same,Bermudagrass plant response rating,[1]; [19],100
same,"Plant response rating, Bermudagrass",[1]; [20],98
same,"Plant response rating, Bermudagrass",[1]; [21],100
same,Bermudagrass plant response rating,[1]; [22],100
same,"Plant response rating, Galium","[2]; 250 g ai/ha, 0 to 100 scale",100
same,"Plant response rating, Galium",[2]; [23],50
same,"Plant response rating, Galium",[2]; [24],80
same,Galium plant response rating,"[2]; 125 g ai/ha, 0 to 100 scale",98
same,"Plant response rating, Morningglory",[3]; [15],100
same,"Plant response rating, Morningglory",[3]; [17],70
same,"Plant response rating, Morningglory",[3]; [18],80
same,Morningglory plant response rating,[3]; [19],98
same,"Plant response rating, Morningglory",[3]; [20],100
same,"Plant response rating, Morningglory",[3]; [21],100
same,Morningglory plant response rating,[3]; [22],100
same,"Plant response rating, Nightshade","[4]; 250 g ai/ha, 0 to 100 scale",100
same,"Plant response rating, Nightshade",[4]; [23],90
same,"Plant response rating, Nightshade",[4]; [24],90
same,Nightshade plant response rating,"[4]; 125 g ai/ha, 0 to 100 scale",100
same,"Plant response rating, Sunflower","[5]; 250 g ai/ha, 0 to 100 scale",100
same,"Plant response rating, Sunflower",[5]; [23],75
same,"Plant response rating, Sunflower",[5]; [24],85
same,Sunflower plant response rating,"[5]; 125 g ai/ha, 0 to 100 scale",90
same,"Plant response rating, Canarygrass",[6]; [16],10
same,"Plant response rating, Canarygrass",[6]; [17],20
same,"Plant response rating, Canarygrass",[6]; [18],40
same,Canarygrass plant response rating,[6]; [19],40
same,"Plant response rating, Chickweed",[7]; [16],50
same,"Plant response rating, Chickweed",[7]; [17],50
same,"Plant response rating, Chickweed",[7]; [18],50
same,Chickweed plant response rating,[7]; [19],85
same,"Plant response rating, Windgrass",[8]; [17],10
same,"Plant response rating, Windgrass",[8]; [18],30
same,Windgrass plant response rating,[8]; [19],50
same,"Plant response rating, Barley",[9]; [16],0
same,"Plant response rating, Barley",[9]; [17],0
same,"Plant response rating, Barley",[9]; [18],0
same,Barley plant response rating,[9]; [19],0
same,"Plant response rating, Flood, Barnyardgrass",[10],30
same,"Plant response rating, Barnyardgrass",[10]; [25],0
same,"Plant response rating, Flood, Ducksalad",[11],85
same,"Plant response rating, Ducksalad",[11]; [25],70
same,"Plant response rating, Flood, Rice",rice (Oryza sativa),0
same,"Plant response rating, Rice",rice (Oryza sativa); [25],0
same,"Plant response rating, Flood, Sedge, Umbrella",[12],80
same,"Plant response rating, Sedge, Umbrella",[12]; [25],70
same,"Plant response rating, Goosegrass",[13],100
CCCc1ncc(C(=O)C2=C(O)CCCC2=O)c(=O)n1CCC [Compound 72],"Plant response rating, Russian Thistle",[14]; [23],0
same,"Plant response rating, Russian Thistle",[14]; [24],30
same,"Plant response rating, Russian Thistle",[14]; [26],80
same,"Plant response rating, Bermudagrass",[1]; [27],75
same,Bermudagrass plant response rating (0 to 100 scale),[1]; [28],80
same,"Plant response rating, Bermudagrass",[1]; [15],100
same,"Plant response rating, Bermudagrass",[1]; [18],85
same,"Plant response rating, Bermudagrass",[1]; [29],85
same,"Plant response rating, Bermudagrass",[1]; [20],95
same,"Plant response rating, Bermudagrass",[1]; [21],98
same,"Plant response rating, Bermudagrass",[1]; [30],98
same,"Plant response rating, Galium","[2]; 250 g ai/ha, 0 to 100 scale",85
same,"Plant response rating, Galium",[2]; [23],0
same,"Plant response rating, Galium",[2]; [24],85
same,"Plant response rating, Galium",[2]; [26],85
same,"Plant response rating, Morningglory",[3]; [27],20
same,Morningglory plant response rating (0 to 100 scale),[3]; [28],85
same,"Plant response rating, Morningglory",[3]; [18],90
same,"Plant response rating, Morningglory",[3]; [29],90
same,"Plant response rating, Morningglory",[3]; [20],0
same,"Plant response rating, Morningglory",[3]; [21],55
same,"Plant response rating, Morningglory",[3]; [30],65
same,"Plant response rating, Nightshade",[4]; [23],95
same,"Plant response rating, Nightshade",[4]; [24],95
same,"Plant response rating, Nightshade",[4]; [26],98
same,"Plant response rating, Sunflower",[5]; [23],25
same,"Plant response rating, Sunflower",[5]; [24],25
same,"Plant response rating, Sunflower",[5]; [26],65
same,"Plant response rating, Canarygrass",[6]; [27],0
same,Canarygrass plant response rating (0 to 100 scale),[6]; [28],0
same,"Plant response rating, Canarygrass",[6]; [18],0
same,"Plant response rating, Canarygrass",[6]; [29],0
same,"Plant response rating, Chickweed",[7]; [27],70
same,Chickweed plant response rating (0 to 100 scale),[7]; [28],85
same,"Plant response rating, Chickweed",[7]; [18],90
same,"Plant response rating, Chickweed",[7]; [29],90
same,"Plant response rating, Windgrass",[8]; [27],5
same,Windgrass plant response rating (0 to 100 scale),[8]; [28],20
same,"Plant response rating, Windgrass",[8]; [18],60
same,"Plant response rating, Windgrass",[8]; [29],65
same,"Plant response rating, Barley",[9]; [27],0
same,Barley plant response rating (0 to 100 scale),[9]; [28],0
same,"Plant response rating, Barley",[9]; [18],0
same,"Plant response rating, Barley",[9]; [29],0
same,"Plant response rating, Flood, Barnyardgrass",[10],30
same,"Plant response rating, Barnyardgrass",[10]; [31],0
same,"Plant response rating, Barnyardgrass",[10]; [32],0
same,Barnyardgrass plant response rating,[10]; [33],0
same,"Plant response rating, Flood, Ducksalad",[11],0
same,"Plant response rating, Ducksalad",[11]; [31],0
same,"Plant response rating, Ducksalad",[11]; [32],0
same,Ducksalad plant response rating,[11]; [33],0
same,"Plant response rating, Flood, Rice",rice (Oryza sativa),20
same,"Plant response rating, Rice",rice (Oryza sativa); [31],0
same,"Plant response rating, Rice",rice (Oryza sativa); [32],20
same,Rice plant response rating,rice (Oryza sativa); [33],0
same,"Plant response rating, Flood, Sedge, Umbrella",[12],30
same,"Plant response rating, Sedge, Umbrella",[12]; [31],0
same,"Plant response rating, Sedge, Umbrella",[12]; [32],0
same,"Sedge, Umbrella plant response rating",[12]; [33],0
